From patent US10206394B2, “Herbicidal compounds” (Syngenta Participations AG, priority 2014, dated 2019)
Where two headings read alike, the source gives them in different places.

Key:
Test in all cases: Glasshouse assay for herbicidal activity (pre- and post-emergence), percentage phytotoxicity
Format in all cases: in vivo
[1] = system: Avena fatua (AVEFA); conditions: Avena fatua
In short: (§1)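 Sow seed in standard soil in pots; apply test herbicide after 1 day (PRE) or about 12 days (POST). Grow on in the glasshouse, watering twice daily, cool-season species at 20/16 °C and warm-season at 24/18 °C. Score visible damage (0–100%) at 20 or 15 DAA respectively.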

[2] = system: Alopecurus myosuroides (ALOMY); conditions: Alopecurus myosuroides
In short: as §1

[3] = system: Lolium perenne (LOLPE); conditions: Lolium perenne
In short: as §1

[4] = system: Echinochloa crus-galli (ECHCG); conditions: Echinochloa crus-galli
In short: as §1

[5] = post-emergence, 360 h, Rate 250 g/ha, post-emergence, assessed visually 15 DAA, 100%=total damage, 0%=no damage, read-out: Post-emergence herbicidal activity (percentage phytotoxicity) AVEFA POST
[6] = pre-emergence, 480 h, Rate 250 g/ha, pre-emergence, assessed visually 20 DAA, 100%=total damage, 0%=no damage, read-out: Pre-emergence herbicidal activity (percentage phytotoxicity) AVEFA PRE
[7] = post-emergence, 360 h, Rate 250 g/ha, post-emergence, assessed visually 15 DAA, 100%=total damage, 0%=no damage, read-out: Post-emergence herbicidal activity (percentage phytotoxicity) ALOMY POST
[8] = pre-emergence, 480 h, Rate 250 g/ha, pre-emergence, assessed visually 20 DAA, 100%=total damage, 0%=no damage, read-out: Pre-emergence herbicidal activity (percentage phytotoxicity) ALOMY PRE
[9] = post-emergence, 360 h, Rate 250 g/ha, post-emergence, assessed visually 15 DAA, 100%=total damage, 0%=no damage, read-out: Post-emergence herbicidal activity (percentage phytotoxicity) LOLPE POST
[10] = pre-emergence, 480 h, Rate 250 g/ha, pre-emergence, assessed visually 20 DAA, 100%=total damage, 0%=no damage, read-out: Pre-emergence herbicidal activity (percentage phytotoxicity) LOLPE PRE
[11] = post-emergence, 360 h, Rate 250 g/ha, post-emergence, assessed visually 15 DAA, 100%=total damage, 0%=no damage, read-out: Post-emergence herbicidal activity (percentage phytotoxicity) ECHCG POST
[12] = pre-emergence, 480 h, Rate 250 g/ha, pre-emergence, assessed visually 20 DAA, 100%=total damage, 0%=no damage, read-out: Pre-emergence herbicidal activity (percentage phytotoxicity) ECHCG PRE
[13] = post-emergence, 360 h, POST-emergence, rate 250 g/ha, visual score 15 DAA (100%=total damage, 0%=no damage), read-out: Post-emergence herbicidal activity (percentage phytotoxicity) AVEFA POST
[14] = pre-emergence, 480 h, PRE-emergence, rate 250 g/ha, visual score 20 DAA (100%=total damage, 0%=no damage), read-out: Pre-emergence herbicidal activity (percentage phytotoxicity) AVEFA PRE
[15] = post-emergence, 360 h, POST-emergence, rate 250 g/ha, visual score 15 DAA (100%=total damage, 0%=no damage), read-out: Post-emergence herbicidal activity (percentage phytotoxicity) ALOMY POST
[16] = pre-emergence, 480 h, PRE-emergence, rate 250 g/ha, visual score 20 DAA (100%=total damage, 0%=no damage), read-out: Pre-emergence herbicidal activity (percentage phytotoxicity) ALOMY PRE
[17] = post-emergence, 360 h, POST-emergence, rate 250 g/ha, visual score 15 DAA (100%=total damage, 0%=no damage), read-out: Post-emergence herbicidal activity (percentage phytotoxicity) LOLPE POST
[18] = pre-emergence, 480 h, PRE-emergence, rate 250 g/ha, visual score 20 DAA (100%=total damage, 0%=no damage), read-out: Pre-emergence herbicidal activity (percentage phytotoxicity) LOLPE PRE
[19] = post-emergence, 360 h, POST-emergence, rate 250 g/ha, visual score 15 DAA (100%=total damage, 0%=no damage), read-out: Post-emergence herbicidal activity (percentage phytotoxicity) ECHCG POST
[20] = pre-emergence, 480 h, PRE-emergence, rate 250 g/ha, visual score 20 DAA (100%=total damage, 0%=no damage), read-out: Pre-emergence herbicidal activity (percentage phytotoxicity) ECHCG PRE
[21] = post-emergence, 360 h, 250 g/ha, post-emergence, 15 DAA, visual assessment (100%=total damage, 0%=no damage), read-out: Post-emergence herbicidal activity (percentage phytotoxicity) AVEFA POST
[22] = pre-emergence, 480 h, 250 g/ha, pre-emergence, 20 DAA, visual assessment (100%=total damage, 0%=no damage), read-out: Pre-emergence herbicidal activity (percentage phytotoxicity) AVEFA PRE
[23] = post-emergence, 360 h, 250 g/ha, post-emergence, 15 DAA, visual assessment (100%=total damage, 0%=no damage), read-out: Post-emergence herbicidal activity (percentage phytotoxicity) ALOMY POST
[24] = pre-emergence, 480 h, 250 g/ha, pre-emergence, 20 DAA, visual assessment (100%=total damage, 0%=no damage), read-out: Pre-emergence herbicidal activity (percentage phytotoxicity) ALOMY PRE
[25] = post-emergence, 360 h, 250 g/ha, post-emergence, 15 DAA, visual assessment (100%=total damage, 0%=no damage), read-out: Post-emergence herbicidal activity (percentage phytotoxicity) LOLPE POST
[26] = pre-emergence, 480 h, 250 g/ha, pre-emergence, 20 DAA, visual assessment (100%=total damage, 0%=no damage), read-out: Pre-emergence herbicidal activity (percentage phytotoxicity) LOLPE PRE
[27] = post-emergence, 360 h, 250 g/ha, post-emergence, 15 DAA, visual assessment (100%=total damage, 0%=no damage), read-out: Post-emergence herbicidal activity (percentage phytotoxicity) ECHCG POST
[28] = pre-emergence, 480 h, 250 g/ha, pre-emergence, 20 DAA, visual assessment (100%=total damage, 0%=no damage), read-out: Pre-emergence herbicidal activity (percentage phytotoxicity) ECHCG PRE

Compound | pest or weed control at 250 g/ha [1, 13] | pest or weed control at 250 g/ha [1, 14] | pest or weed control at 250 g/ha [2, 15] | pest or weed control at 250 g/ha [2, 16] | pest or weed control at 250 g/ha [3, 17] | pest or weed control at 250 g/ha [3, 18] | pest or weed control at 250 g/ha [4, 19] | pest or weed control at 250 g/ha [4, 20] | other results
C#CC(C)(C)NC(=O)CC1CC(=O)C(c2c(C)cc(C)cc2C)C1=O (stereo not drawn) [Compound A11] |  |  |  |  |  |  |  |  | pest or weed control at 250 g/ha [1, 5]: 70%; pest or weed control at 250 g/ha [1, 6]: 50%; pest or weed control at 250 g/ha [2, 7]: 80%; pest or weed control at 250 g/ha [2, 8]: 70%; pest or weed control at 250 g/ha [3, 9]: 70%; pest or weed control at 250 g/ha [3, 10]: 70%; pest or weed control at 250 g/ha [4, 11]: 80%; pest or weed control at 250 g/ha [4, 12]: 70%
CCNC(=O)CC1CC(=O)C(c2c(C)cc(-c3ncc(F)cn3)cc2C)C1=O (stereo not drawn) [Compound B277] | 100% | 100% | 100% | 100% | 100% | 100% | 100% | 100% | 
Cc1cc(-c2ncc(F)cn2)cc(C)c1C1C(=O)CC(CC(=O)N2CCOCC2)C1=O (stereo not drawn) [Compound B276] | 90% | 80% | 90% | 100% | 100% | 90% | 100% | 100% | 
Cc1cc(-c2ncc(Cl)cc2F)cc(C)c1C1C(=O)CC(CC(=O)NCc2ccsc2)C1=O (stereo not drawn) [Compound A130] |  |  |  |  |  |  |  |  | pest or weed control at 250 g/ha [1, 5]: 100%; pest or weed control at 250 g/ha [1, 6]: 90%; pest or weed control at 250 g/ha [2, 7]: 90%; pest or weed control at 250 g/ha [2, 8]: 70%; pest or weed control at 250 g/ha [3, 9]: 100%; pest or weed control at 250 g/ha [3, 10]: 90%; pest or weed control at 250 g/ha [4, 11]: 100%; pest or weed control at 250 g/ha [4, 12]: 100%
Cc1cc(C)c(C2C(=O)CC(CC(N)=O)C2=O)c(C)c1 (stereo not drawn) [Compound A187] |  |  |  |  |  |  |  |  | pest or weed control at 250 g/ha ([1]; post-emergence, 360 h, post-emergence, 250 g/ha, 15 DAA, visual score (100%=total damage; 0%=no damage), read-out: AVEFA POST herbicidal activity (percentage phytotoxicity)): 100%; pest or weed control at 250 g/ha ([1]; pre-emergence, 480 h, pre-emergence, 250 g/ha, 20 DAA, visual score (100%=total damage; 0%=no damage), read-out: AVEFA PRE herbicidal activity (percentage phytotoxicity)): 90%; pest or weed control at 250 g/ha ([2]; post-emergence, 360 h, post-emergence, 250 g/ha, 15 DAA, visual score (100%=total damage; 0%=no damage), read-out: ALOMY POST herbicidal activity (percentage phytotoxicity)): 80%; pest or weed control at 250 g/ha ([2]; pre-emergence, 480 h, pre-emergence, 250 g/ha, 20 DAA, visual score (100%=total damage; 0%=no damage), read-out: ALOMY PRE herbicidal activity (percentage phytotoxicity)): 80%; pest or weed control at 250 g/ha ([3]; post-emergence, 360 h, post-emergence, 250 g/ha, 15 DAA, visual score (100%=total damage; 0%=no damage), read-out: LOLPE POST herbicidal activity (percentage phytotoxicity)): 90%; pest or weed control at 250 g/ha ([3]; pre-emergence, 480 h, pre-emergence, 250 g/ha, 20 DAA, visual score (100%=total damage; 0%=no damage), read-out: LOLPE PRE herbicidal activity (percentage phytotoxicity)): 100%; pest or weed control at 250 g/ha ([4]; post-emergence, 360 h, post-emergence, 250 g/ha, 15 DAA, visual score (100%=total damage; 0%=no damage), read-out: ECHCG POST herbicidal activity (percentage phytotoxicity)): 100%; pest or weed control at 250 g/ha ([4]; pre-emergence, 480 h, pre-emergence, 250 g/ha, 20 DAA, visual score (100%=total damage; 0%=no damage), read-out: ECHCG PRE herbicidal activity (percentage phytotoxicity)): 90%
CC#Cc1cc(C)c(C2C(=O)CC(CC(N)=O)C2=O)c(C)c1 (stereo not drawn) [Compound B168] | 100% | 100% | 100% | 100% | 100% | 100% | 100% | 100% | 
Cc1cc(C)c(C2C(=O)CC(CC(=O)NC(C)(C)c3ccccc3)C2=O)c(C)c1 (stereo not drawn) [Compound B29] |  |  |  |  |  |  |  |  | pest or weed control at 250 g/ha [1, 21]: 60%; pest or weed control at 250 g/ha [1, 22]: 10%; pest or weed control at 250 g/ha [2, 23]: 70%; pest or weed control at 250 g/ha [2, 24]: 30%; pest or weed control at 250 g/ha [3, 25]: 70%; pest or weed control at 250 g/ha [3, 26]: 80%; pest or weed control at 250 g/ha [4, 27]: 70%; pest or weed control at 250 g/ha [4, 28]: 80%
C/C=C/c1cc(C)c(C2C(=O)CC(CC(N)=O)C2=O)c(C)c1 (stereo not drawn) [Compound B175] | 100% | 90% | 90% | 100% | 80% | 100% | 90% | 100% | 
Cc1cc(C)c(C2C(=O)CC(CC(=O)NCc3cccc(C)n3)C2=O)c(C)c1 (stereo not drawn) [Compound B68] |  |  |  |  |  |  |  |  | pest or weed control at 250 g/ha [1, 21]: 80%; pest or weed control at 250 g/ha [1, 22]: 10%; pest or weed control at 250 g/ha [2, 23]: 90%; pest or weed control at 250 g/ha [2, 24]: 80%; pest or weed control at 250 g/ha [3, 25]: 70%; pest or weed control at 250 g/ha [3, 26]: 80%; pest or weed control at 250 g/ha [4, 27]: 70%; pest or weed control at 250 g/ha [4, 28]: 80%
CCc1cc(C)cc(C)c1C1C(=O)CC(CC(=O)NCc2ccc(C#N)cc2)C1=O (stereo not drawn) [Compound B254] | 100% | 90% | 100% | 90% | 100% | 90% | 100% | 100% | 
Cc1cc(-c2ccc(C#N)cn2)cc(C)c1C1C(=O)CC(CC(=O)NCc2cccc(Cl)c2)C1=O (stereo not drawn) [Compound B295] | 100% | 60% | 90% | 80% | 90% | 90% | 100% | 90% | 
Cc1cc(-n2cc(Cl)cn2)cc(C)c1C1C(=O)CC(CC(=O)NC(C)C)C1=O (stereo not drawn) [Compound A74] |  |  |  |  |  |  |  |  | pest or weed control at 250 g/ha [1, 5]: 100%; pest or weed control at 250 g/ha [1, 6]: 90%; pest or weed control at 250 g/ha [2, 7]: 100%; pest or weed control at 250 g/ha [2, 8]: 100%; pest or weed control at 250 g/ha [3, 9]: 90%; pest or weed control at 250 g/ha [3, 10]: 90%; pest or weed control at 250 g/ha [4, 11]: 100%; pest or weed control at 250 g/ha [4, 12]: 100%
